This note sets out measurements from patent publication US8895806B2, “Fucosyl transferase gene” (priority 1999, dated 2014).

What all share (format): biochemical, mung bean
Series [1] deals with recombinant GlcNAc-α1,3-fucosyl transferase (Vigna radiata, UniProt Q9ST51). The experiment in a line: Assay for GlcNAc-α1,3-fucosyl transferase activity (GnGn peptide and GDP-L-[U-14C]-fucose). As to conditions: for Rel. Activity: acceptor substrate, standard test conditions; for Km: acceptor or donor substrate, unit inferred, read-out: apparent Km-values.
Substrate in series [2]: C[C@@H]1O[C@H](OP(=O)(O)OP(=O)(O)OC[C@H]2O[C@@H](n3cnc4c(=O)[nH]c(N)nc43)[C@H](O)[C@@H]2O)[C@@H](O)[C@H](O)[C@@H]1O
The series is described as above. As to conditions: other: acceptor or donor substrate, unit inferred; pH 7.4; 27.0 °C.

In series [3] the test system is GlcNAc-α1,3-fucosyl transferase activity. The series can be described thus: Enzyme activity of insect cells transfected with the α1,3-fucosyl transferase gene versus negative control. An excerpt: The encoding region of the assumed GlcNAc-α1,3-fucosyl transferase including cytoplasmatic and transmembrane region was amplified with the forward primer 5′-[…]-3′ (SEQ ID NO: 16) and reverse primer 5′-[…]-3′ (SEQ ID NO: 17) by means of the Expand High Fidelity PCR System of Boehringer Mannheim. The PCR product was double-digested with PstI and BamHI and subcloned in alkaline phosphatase-treated baculovirus transfer vector pVL1393 which previously had been digested with PstI and BamHI. To ensure a homologous recombination, the transfer vector was co-transfected with Baculo Gold viral DNA (PharMingen, Sand Diego, Calif.) in Sf9 insect cells in IPL-41 Medium with lipofectin. After an incubation of 5 days at 27° C., various volumes of the supernatant with the recombinant virus were used for infecting the Sf21 insect cells. After an incubation of 4 days at 27° C. in IPL-41 Medium with 5% FCS, the […] cells were harvested and washed 2× with phosphate-buffered saline solution. The cells were resuspended in 25 mM Tris HCl buffer, pH 7.4, with 2% Triton X-100 and broken up by sonication on ice.
The homogenate and the cell supernatant were assayed for GlcNAc-α1,3-fucosyl transferase. Blind samples were carried out with recombinant baculovirus which codes for the tobacco-GlcNAc-transferase I (Strasser et al., 1999, Glycobiology, in the process of printing). […]

Where [4] appears, read: additive conc. 10 mM, recombinant transferase.

Like-named read-outs stand apart in the source and are kept apart here. A value given as a limit tells only on which side of the number the result lay.

Turning to `[Ca+2].[Cl-].[Cl-]` [CaCl2], the “Relative Activity (Acceptor: GnGn-peptide)” value (“Relative Activity” below) in series [1] (additive conc. 10 mM, […]) is recorded as 82%.

For the molecule `[Cl][Cd][Cl]` [CdCl2], in series [1] (additive conc. 10 mM, […]), the “Relative Activity” value is reported as 44%.

For `[Cl-].[Cl-].[Co+2]` [CoCl2], in series [1], the “Relative Activity” value was found to be 35%.

Consider `[Cl][Cu][Cl]` [CuCl2], for which the “Relative Activity” value in series [1] (setting [4]) was determined as 3%.

Regarding `O=C(O)CN(CCN(CC(=O)O)CC(=O)O)CC(=O)O` [EDTA], the “Relative Activity” value in series [1] (setting [4]) is listed as 18%.

Consider `CC(=O)N[C@H]1C(O)O[C@H](CO)[C@@H](O[C@@H]2O[C@H](CO)[C@H](O)[C@H](O)[C@H]2O)[C@@H]1O` (stereo partly shown) [Galβ-4GlcNAc], for which the “Rel. Activity” value in series [1] (recombinant transferase) was 0%.

Consider `[Cl-].[Cl-].[Mg+2]` [MgCl2], for which the “Relative Activity” value in series [1] (setting [4]) is 52%.

As for `[Cl][Mn][Cl]` [MnCl2], the “Relative Activity” value in series [1] (additive conc. 10 mM, […]) is listed as 100%. Also, in series [1] (result in words), the “effect of addition of bivalent cations on activity of the recombinant transferase” value was “enhances the activity”.

As for `[Cl][Ni][Cl]` [NiCl2], the “Relative Activity” value in series [1] (additive conc. 10 mM, […]) was 24%.

On to `[Cl-].[Cl-].[Zn+2]` [ZnCl2], for which the “Relative Activity” value in series [1] (setting [4]) came to 0.6%.

As to Galβ1-3GlcNAc, the “Rel. Activity” value in series [1] (recombinant transferase) was found to be 0%.

As to Galβ1-3GlcNAcβ1-3Galβ1-4Glc, in series [1] (recombinant transferase), the “Rel. Activity” value stood at 0%.

On to “GlcNAcβ1-2Manα1-3(GlcNAcβ1-2Manα1-6)Manβ1-4GlcNAcβ1-4(Fucα1-6)GlcNAcβ1-Asn [GnGnF^6-peptide]”, for which the Michaelis constant (Km) (as a rule, the substrate concentration at which the rate is half of its maximum) in series [1] was 130 µM. Besides, the “Rel. Activity” value in series [1] (recombinant transferase) was found to be 87%.

Turning to “GlcNAcβ1-2Manα1-3(GlcNAβ1-2Manα1-6)Manβ1-4GlcNAcβ1-4GlcNAcβ1-Asn [GnGn-peptide]”, in series [1], the Km turned out to be 190 µM. Also, in series [1] (recombinant transferase), the “Rel. Activity” value amounted to 100%.

Turning to “GlcNAcβ1-2Manα1-3[Manα1-3(Manα1-6)Manα1-6]Manβ1-4GlcNAcβ1-4GlcNAcβ1-Asn [M5Gn-Asn]”, in series [1], the Michaelis constant (Km) amounted to 230 µM. Besides, the “Rel. Activity” value in series [1] (recombinant transferase) was determined as 71%.

B1: recombinant GlcNAc-α1,3-fucosyl transferase (Vigna radiata var. radiata) (protein)
chain: MMGLLTNLRGSRTDGAQQDSLPVLAPGGNPKRKWSNLMPLVVALVVIAEIAFLGRLDMAKNAAMVDSLADFFYRSRAVVEGDDLGLGLVASDRNSESYSCEEWLEREDAVTYSRGFSKEPIFVSGADQEWKSCSVGCKFGFSGDRKPDAAFGLPQPSGTASILRSMESAEYYAENNIAMARRRGYNIVMTTSLSSDVPVGYFSWAEYDMMAPVQPKTEAALAAAFISNCGARNFRLQALEALEKSNIKIDSYGGCHRNRDGRVNKVEALKHYKFSLAFENSNEEDYVTEKFFQSLVAGTVPVVVGAPNIQDFAPSPGSILHIKEIEDVESVAKTMRYLAENPEAYNQSLRWKYEGPSDSFKALVDMAAVHSSCRLCIHLATVSREKEENNPSLKRRPCKCTRGPETVYHIYVRERGRFEMESIYLRSSNLTLNAVKAAVVLKFTSLNLVPVWKTERPEVIRGGSALKLYKIYPIGLTQRQALYTFSFKGDADFRSHLENNPCAKFEVIFV
B1: the Km in series [2] was determined as 110 µM. In addition, the “enzyme activity of the cotransfected cells and their supernatant relative to negative controls” value in series [3] (Sf21 insect cells, homogenate and supernatant, at best) was at most 30 ×. Moreover, the “increase in the GlcNAc-α1,3-fucosyl transferase coming from the recombinant baculoviruses” value in series [3] (corrected for endogenous insect α1,6-fucosyl transferase activity) was > 100 -fold.
